One experiment has as its system human CD8+ T cells. The experiment is described as follows: Human T cell activation assay (CFSE proliferation). The experiment is classed as cell-based. To be noted: various concentrations with 3 μg/ml anti-CD3. The procedure: (FIG. 5A) DD1α inhibits the activation of human CD4+ T cells and CD8+ T cells. Enriched human CD4+ T cells and CD8+ T cells were stained with CFSE (1 μM) and stimulated with plate-bound anti-CD3 antibody (3 μg/ml) together with 2, 5, or 10 μg/ml of DD1α-Ig proteins or control Ig proteins. The proliferations of CD4+ T or CD8+ T cells were determined by the percentages of CFSE-labeled CD4+ T or CD8+ T cells at the 72-hour culture. The levels of cytokines IFN-γ and TNF-α in culture supernatant were analyzed by ELISA at the 48-hour culture. (FIG. 5B) DD1α-mediated inhibition of T cell activation is modulated by α-PD1 antibodies. […] The proliferation and cytokine production of CD4+ T cells were determined as FIG. 5A. […] The proliferations of CD4+ T cells were determined by percentage of CFSE-diluted CD4+ cells on day 3. The levels of cytokines IFN-γ and IL-2 in culture supernatant were analyzed by ELISA on day 2. (FIG. 5D) DD1α mediates Foxp3+ iTreg cell development. […]
The amount of Ig protein was kept constant at 10 μg/ml by the addition of control Ig protein. […] On day 3, cells were stained with anti-CD4-APC (OKT4, eBioscience for human CD4+ T cells; RM4-5, eBioscience for mouse CD4+ T cells) or anti-CD8-APC (SK1, eBioscience for human CD8+ T cells; 53-6.7, eBioscience for mouse CD8+ T cells) and then analyzed for CFSE dilution by flow cytometry.

Experiment [1] has as its system CD4+ or CD8+ T cells from wt- or DD1α−/− mice. The experiment is described as follows: Mouse T cell activation assay (CFSE proliferation). The experiment is classed as cell-based. The procedure:
Enriched CD4+ and CD8+ T cells from Wt and DD1α−/− mice were stimulated, with 2.5 μg/ml anti-CD3 alone or together with DD1α-Ig or control Ig. The proliferations of CD4+ T cells (top graphs) or CD8+ T cells (bottom graphs) were determined by the percentage of CFSE-diluted CD8+ cells on day 3. The levels of cytokines (IFN-γ and TNF-α) in culture supernatant on day 2 were analyzed by ELISA. The results represent mean±SD from three experiments.
The inventors have discovered that DD1αregulates T cell activation through DD1α on T cells. […] The proliferations of CD4+ T cells were determined by percentage of CFSE-diluted CD4+ cells on day 3 and IFN-γ and levels in culture supernatants on day 2 were analyzed by ELISA. […] The proliferations of CD8+ T cells were determined by percentage of CD8+ T cells containing diluted CFSE signal on day 3. The cytokine levels in culture supernatant were analyzed by ELISA on day 2.
The amount of Ig protein was kept constant at 10 μg/ml by the addition of control Ig protein. Human CD4+ or CD8+ T cells were purified from freshly isolated PBMCs using CD4+ T Cell Isolation Kit II, human or CD8+ T Cell Isolation Kit, human (Miltenyi Biotec). Mouse CD4+ and CD8+ T cells were purified from splenocytes freshly isolated from mice using CD4+ T Cell Isolation Kit II, mouse or CD8a+ T Cell Isolation Kit II, mouse (Miltenyi Biotec). Purity was confirmed to be over 90% by flow cytometry. The T cells were labeled with 1 μM CFSE, quenched by cold FBS and incubated in the anti-CD3 & Ig proteins-coated plates. On day 2 after stimulation, supernatant was collected and cytokines were assayed by ELISA. On day 3, cells were stained with anti-CD4-APC (OKT4, eBioscience for human CD4+ T cells; RM4-5, eBioscience for mouse CD4+ T cells) or anti-CD8-APC (SK1, eBioscience for human CD8+ T cells; 53-6.7, eBioscience for mouse CD8+ T cells) and then analyzed for CFSE dilution by flow cytometry.

A further experiment deals with T1, PD-1 (Homo sapiens, UniProt Q15116).
T1 construct: full length human PD-1 and Tim3 cDNA (Sino biological) were cloned into pcDNA3.1(−) tagged with HA at C-terminus; host or cells: HEK293T
The experiment is described as follows: Ig fusion protein staining of 293T transfectants (flow cytometry). Type of experiment: binding. To be noted: cell surface staining. The procedure:
(§1) The bound Ig fusion proteins were detected with anti-Ig-APC. Empty vector (pcDNA3.1)-transfected cells stained with Ig proteins are shown as a negative control (gray filled) and other staining is shown as black open. […] Purified CD4+ T cells from Wt and DD1α−/− mice were assayed for binding to Ig fused DD1α or PD1 proteins. […] The bound Ig fusion proteins were detected by anti-Ig-APC. Binding amounts were determined by percentage of APC positive cells compared to control Ig protein-bound cells. […] The bead bound proteins were eluted and determined by western blot analysis using anti-HA antibody (asterisks). […] The bead bound proteins were eluted and detected by western blot analysis with anti-DD1α or anti-PD1 antibody (asterisk). […] MCF7 cells were treated by Nutlin-3 (10 μM) for 1 to 3 days. MCF7 cells were transfected with control siRNA or p53 siRNA for 24 hours and treated with CPT (500 nM) or DMSO (control) for 1 and 2 days. The levels of indicated proteins were analyzed by western blot analysis. Total RNAs from control siRNA or p53 siRNA transfected MCF7 cells were assessed for mRNA levels of PD1 or PD-L1 by real-time quantitative PCR.
(In flow cytometry, cells or beads pass a laser one at a time.)

A further experiment concerns the target T2, TIM-3 (Homo sapiens, UniProt Q8TDQ0).
T2 construct: full length human PD-1 and Tim3 cDNA (Sino biological) were cloned into pcDNA3.1(−) tagged with HA at C-terminus; host or cells: HEK293T
The description is as above. Type of experiment: binding. To be noted: cell surface staining. The procedure:
as §1

T1 sequence (Q15116 25-288): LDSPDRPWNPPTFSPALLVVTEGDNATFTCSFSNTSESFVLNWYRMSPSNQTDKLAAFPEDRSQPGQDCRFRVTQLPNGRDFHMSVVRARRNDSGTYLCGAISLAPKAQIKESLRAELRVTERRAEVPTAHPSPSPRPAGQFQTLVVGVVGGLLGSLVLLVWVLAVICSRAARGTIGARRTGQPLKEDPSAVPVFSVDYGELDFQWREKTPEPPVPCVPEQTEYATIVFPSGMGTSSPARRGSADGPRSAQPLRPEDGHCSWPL

In the case of “DD1α-Ig: the extracellular region of DD1α fused with the immunoglobulin G Fc segment”, the “CD8+ T cell proliferation stimulated by anti-CD3” value with human CD8+ T cells is listed as “strongly inhibited”. For the same substance, the “inhibition of anti-CD3-induced CD4+ or CD8+ T cell proliferation” value was ~30% in experiment [1] (DD1α−/− CD4+ or CD8+ T cells) and ~50% in experiment [1] (T cells from wt mice). Further, in experiment [1] (dose-dependent), the “mouse CD4+ and CD8+ T cell activation” value is “inhibitory effect”. Moreover, the “binding to PD-1-transfected 293T cells” value with PD-1 is reported as “specifically bound”. In addition, the “binding to TIM-3 transfectants” value with TIM-3 is on record as “not to PD-L1 or TIM-3 transfectants”.

For the origin of these results see patent US20170184604A1, “DD1ALPHA RECEPTOR AND USES THEREOF IN IMMUNE DISORDERS” (THE GENERAL HOSPITAL CORPORATION, priority 2014, published 2017).
